Data on two compounds can be found in patent US12195468B2, “TLR7 agonist for treating colorectal cancer and pharmaceutical combination thereof” (CHIA TAI TIANQING PHARMACEUTICAL GROUP CO., LTD., priority 2018, dated 2025).

The test system of this assay is MC-38 colon cancer. Description: Anti-tumor experiment in MC-38 mouse model (subcutaneous xenograft tumor of MC-38 colon cancer in mice). In kind it is in vivo. To be noted: for TV (mm^3) on day 0 Mean ± SD: day 0 (baseline at grouping); for TV (mm^3) on day 0 Mean ± SD / TV (mm^3) on day 12 Mean ± SD / TV (mm^3) on day 18 Mean ± SD: female C57BL/6 mice; for TV (mm^3) on day 0 Mean ± SD / TV (mm^3) on day 12 Mean ± SD / TV (mm^3) on day 18 Mean ± SD / TGI (%): i.g., anlotinib 1 mg/kg qd, TLR7 agonist 20 mg/kg tiw, 2 w; for TGI (%): tumor growth inhibition from tumor weight vs control group at end of experiment. The procedure:
In Example 1, the TLR7 agonist is selected from
[drawing 58] and anlotinib is selected fromanlotinib dihydrochloride.
The MC-38 is a colon cancer cell of mouse from Jiangsu Cyto Biotechnology Co., Ltd.
Subcutaneously grafted tumor cells of MC-38 colon cancer (concentration: 2×10^6/mL×0.2 mL/mouse) were inoculated into female C57BL/6 mice at the right side armpit (the site to be inoculated was shaved before inoculating) in a sterile environment, and passaged using a block insertion method. The C57BL/6 mice were 16-18 g in weight, and the breeding environment was SPF level. The diameter of the C57BL/6 xenograft tumor was measured using a vernier caliper, and the mice were randomized into 4 groups when the tumors grew to 100-300 mm^3 (12 mice for control group and 6 mice each for other groups): • i. Control group (blank control); • ii. Monotherapy group: anlotinib, with normal saline as vehicle; • iii. Monotherapy group: TLR7 agonist, with ethanol+tween 80+normal saline (v:v:v=5:5:90) as vehicle; • iv.
The administration method of the combination therapy group is consistent with that of the monotherapy group.
Weights and diameter of the tumor were measured every three days, and the behavior of mice was observed daily. After the experiment was completed, the tumors were removed, weighed and photographed.
The tumor volume and the tumor growth inhibition were calculated using the following formulas: Tumor volume (TV)=(L×W^2)/2.
The TGI (%), as a value of efficacy, was substituted into the Jin zhengjun's formula q=Eab/(Ea+Eb−Ea×Eb), where Ea and Eb represent the efficacy of medicaments used alone, and Eab represents the efficacy of combined use.

SMILES strings stand for the structures.

On to `COc1cc2c(Oc3ccc4[nH]c(C)cc4c3F)ccnc2cc1OCC1(N)CC1` [anlotinib, 1-[[[4-(4-fluoro-2-methyl-1H-indol-5-yl)oxy-6-methoxyquinolin-7-yl]oxy]methyl]cyclopropylamine, reference compound], for which the “TV (mm^3) on day 0 Mean ± SD” value is on record as 143.28 ± 45.46 mm^3, the “TV (mm^3) on day 12 Mean ± SD” value came to 427.30 ± 135.63 mm^3, the “TV (mm^3) on day 18 Mean ± SD” value stood at 900.32 ± 346.06 mm^3 and the “TGI (%)” value was 33%.

`CCCCOc1nc(N)c2[nH]cc(Cc3ccc(CN4CCCC4)cc3)c2n1` [TLR7 agonist]: the “TV (mm^3) on day 0 Mean ± SD” value is reported as 143.93 ± 47.74 mm^3, the “TV (mm^3) on day 12 Mean ± SD” value was 427.88 ± 161.31 mm^3, the “TV (mm^3) on day 18 Mean ± SD” value turned out to be 747.63 ± 347.13 mm^3 and the “TGI (%)” value is on record as 39%. For the same compound, where the note is “summary of Table 2”, the “effect on growth of MC-38 tumor (in words)” value was “can inhibit the growth of MC-38 tumor”.
